US9573957B2 (Boehringer Ingelheim International GmbH, priority 2013, dated 2017)

How the values were obtained:
human LTA4 hydrolase = human LTA4 hydrolase (Homo sapiens (Human), UniProt P09960); experiment: LTA4H Enzyme assay (peptidase, Arg-AMC cleavage); format: biochemical; details: LTA4H Enzyme 1 nM, Arg-AMC substrate 50 μM, room temperature 1 h, fluorescence
Description: The compounds of the invention are assessed for the ability to interact with human LTA4 hydrolase in an enzymatic assay that measures the ability of the enzyme to cleave the peptide bond of arginyl-aminomethylcoumarin (Arg-AMC). LTA4H Enzyme (1 nM final), Arg-AMC substrate (50 μM final), and compound are combined in a reaction buffer (50 mM Tris-HCl (pH 7.5), 100 mM KCl, 0.5% bovine serum albumin) at room temperature for 1 h. The formation of product is assessed by measuring the fluorescence of aminomethylcoumarin product (excitation wavelength 380 nm/emission wavelength 460 nm).

[1] = tested on: synthesis of LTB4 in human whole blood; experiment: LTB4 production inhibition assay in human whole blood (HWB); format: cell-based; details: heparinized human whole blood, 15 min at 37° C., Calcimycin 20 μM 30 min, plasma LTB4 by HTRF
Description: The compounds of the invention are additionally tested in a human whole blood (HWB) assay to determine their ability to inhibit the synthesis of LTB4 in a cellular system. Compounds are combined with heparinized human whole blood and incubated for 15 minutes at 37° C. Calcimycin (20 μM final, prepared in phosphate-buffered saline, pH 7.4) is then added and the mixture is incubated for another 30 minutes at 37° C. The samples are centrifuged for 5 min at low speed (1500×g) and the plasma layer is removed. Plasma LTB4 concentrations are then measured using an antibody-based homogenous time-resolved fluorescence method (CisBio, Bedford, Mass.).

Sequence of human LTA4 hydrolase (P09960 whole entry): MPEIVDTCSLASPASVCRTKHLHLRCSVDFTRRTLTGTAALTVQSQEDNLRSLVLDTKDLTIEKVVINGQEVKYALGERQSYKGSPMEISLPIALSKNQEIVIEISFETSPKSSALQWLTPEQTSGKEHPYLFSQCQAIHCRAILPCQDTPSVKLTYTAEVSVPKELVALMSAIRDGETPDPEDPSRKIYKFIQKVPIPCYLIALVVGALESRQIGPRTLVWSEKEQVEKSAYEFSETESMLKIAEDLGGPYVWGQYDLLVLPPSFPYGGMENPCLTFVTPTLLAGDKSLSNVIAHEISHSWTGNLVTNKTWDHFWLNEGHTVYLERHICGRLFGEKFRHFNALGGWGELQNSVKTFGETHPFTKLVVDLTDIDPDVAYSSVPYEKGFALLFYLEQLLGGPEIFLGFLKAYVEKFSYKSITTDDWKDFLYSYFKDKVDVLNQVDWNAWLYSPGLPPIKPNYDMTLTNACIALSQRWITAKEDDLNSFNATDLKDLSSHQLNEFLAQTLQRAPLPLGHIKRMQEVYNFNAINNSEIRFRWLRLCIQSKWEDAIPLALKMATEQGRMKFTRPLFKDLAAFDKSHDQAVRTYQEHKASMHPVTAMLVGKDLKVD

| IC50 (human LTA4 hydrolase) [µM] | IC50 [1] [µM] | SMILES |
| --- | --- | --- |
| 0.0013 | 0.23 | C[C@H](O)C(=O)N1CCN(Cc2ccc3cc(Oc4ncc(-c5ccn[nH]5)cn4)ccc3c2)CC1 [Example 30, (S)-2-Hydroxy-1-(4-{6-[5-(2H-pyrazol-3-yl)-pyrimidin-2-yloxy]-naphthalen-2-ylmethyl}-piperazin-1-yl)-propan-1-one] |
| 0.0015 | 0.27 | CN(C(=O)CO)C1CCN(Cc2ccc3cc(Oc4ncc(-c5ccn[nH]5)cn4)ccc3c2)CC1 [Example 31, 2-Hydroxy-N-methyl-N-(1-{6-[5-(2H-pyrazol-3-yl)-pyrimidin-2-yloxy]-naphthalen-2-ylmethyl}-piperidin-4-yl)-acetamide] |
| 0.0011 | 0.18 | CC(=O)N1CC(CN(C)Cc2ccc3cc(Oc4ncc(-c5ccn[nH]5)cn4)ccc3c2)C1 [Example 32, 1-{3-[(Methyl-{6-[5-(2H-pyrazol-3-yl)-pyrimidin-2-yloxy]-naphthalen-2-ylmethyl}-amino)-methyl]-azetidin-1-yl}-ethanone] |
| 0.00092 | 0.15 | O=C1OCCN1C1CCN(Cc2ccc3cc(Oc4ncc(-c5ccn[nH]5)cn4)ccc3c2)CC1 [Example 33, 3-(1-{6-[5-(2H-Pyrazol-3-yl)-pyrimidin-2-yloxy]-naphthalen-2-ylmethyl}-piperidin-4-yl)-oxazolidin-2-one] |
| 0.00081 | 0.43 | CN(C)C(=O)N1CCN(Cc2ccc3cc(Oc4ncc(-c5ccn[nH]5)cn4)ccc3c2)CC1 [Example 34, 4-{6-[5-(2H-Pyrazol-3-yl)-pyrimidin-2-yloxy]-naphthalen-2-ylmethyl}-piperazine-1-carboxylic acid dimethylamide] |
| 0.0027 | 0.95 | CC(C)(C)C(=O)N1CCN(Cc2ccc3cc(Oc4ncc(-c5ccn[nH]5)cn4)ccc3c2)CC1 [Example 35, 2,2-Dimethyl-1-(4-{6-[5-(2H-pyrazol-3-yl)-pyrimidin-2-yloxy]-naphthalen-2-ylmethyl}-piperazin-1-yl)-propan-1-one] |
| 0.0019 | 0.22 | O=C1CCCN1C1CCN(Cc2ccc3cc(Oc4ncc(-c5ccn[nH]5)cn4)ccc3c2)CC1 [Example 36, 1-(1-{6-[5-(2H-Pyrazol-3-yl)-pyrimidin-2-yloxy]-naphthalen-2-ylmethyl}-piperidin-4-yl)-pyrrolidin-2-one] |
| 0.00043 | 0.12 | CCC(=O)N1CCN(Cc2ccc3cc(Oc4ncc(-c5ccn[nH]5)cn4)ccc3c2)CC1 [Example 37, 1-(4-{6-[5-(2H-Pyrazol-3-yl)-pyrimidin-2-yloxy]-naphthalen-2-ylmethyl}-piperazin-1-yl)-propan-1-one] |
| 0.0012 | 0.18 | CN(C)C(=O)C1CCN(Cc2ccc3cc(Oc4ncc(-c5ccn[nH]5)cn4)ccc3c2)CC1 [Example 38, 1-{6-[5-(2H-Pyrazol-3-yl)-pyrimidin-2-yloxy]-naphthalen-2-ylmethyl}-piperidine-4-carboxylic acid dimethylamide] |
| 0.0022 | 0.32 | CC(C)(O)C(=O)N1CCN(Cc2ccc3cc(Oc4ncc(-c5ccn[nH]5)cn4)ccc3c2)CC1 [Example 39, 2-Hydroxy-2-methyl-1-(4-{6-[5-(2H-pyrazol-3-yl)-pyrimidin-2-yloxy]-naphthalen-2-ylmethyl}-piperazin-1-yl)-propan-1-one] |
| 0.0018 | 0.34 | O=C(C1CC1)N1CCN(Cc2ccc3cc(Oc4ncc(-c5ccn[nH]5)cn4)ccc3c2)CC1 [Example 40, Cyclopropyl-(4-{6-[5-(2H-pyrazol-3-yl)-pyrimidin-2-yloxy]-naphthalen-2-ylmethyl}-piperazin-1-yl)-methanone] |
| 0.00097 | 0.43 | CC(C)C(=O)N1CCN(Cc2ccc3cc(Oc4ncc(-c5ccn[nH]5)cn4)ccc3c2)CC1 [Example 41, 2-Methyl-1-(4-{6-[5-(2H-pyrazol-3-yl)-pyrimidin-2-yloxy]-naphthalen-2-ylmethyl}-piperazin-1-yl)-propan-1-one] |
| 0.00092 | 0.19 | OC1CN(Cc2ccc3cc(Oc4ccc(-c5ccn[nH]5)cn4)ccc3n2)C1 [Example 42, 1-{6-[5-(2H-Pyrazol-3-yl)-pyridin-2-yloxy]-quinolin-2-ylmethyl}-azetidin-3-ol] |
| 0.002 | 0.68 | N#CCCNCc1ccc2cc(Oc3ccc(-c4ccn[nH]4)cn3)ccc2n1 [Example 43, 3-({6-[5-(2H-Pyrazol-3-yl)-pyridin-2-yloxy]-quinolin-2-ylmethyl}-amino)-propionitrile] |
| 0.0027 | 0.87 | CC[C@H](CC#N)NCc1ccc2cc(Oc3ccc(-c4ccn[nH]4)cn3)ccc2n1 [Example 44, (R)-3-({6-[5-(2H-Pyrazol-3-yl)-pyridin-2-yloxy]-quinolin-2-ylmethyl}-amino)-pentanenitrile] |
| 0.0024 | 0.31 | O[C@@H]1CCN(Cc2ccc3cc(Oc4ncc(-c5ccn[nH]5)cn4)ccc3c2)C1 [Example 45, (R)-1-{6-[5-(2H-Pyrazol-3-yl)-pyrimidin-2-yloxy]-naphthalen-2-ylmethyl}-pyrrolidin-3-ol] |
| 0.0025 | 0.23 | O[C@H]1CCN(Cc2ccc3cc(Oc4ncc(-c5ccn[nH]5)cn4)ccc3c2)C1 [Example 46, (S)-1-{6-[5-(2H-Pyrazol-3-yl)-pyrimidin-2-yloxy]-naphthalen-2-ylmethyl}-pyrrolidin-3-ol] |
| 0.0019 | 0.21 | CC1(O)CN(Cc2ccc3cc(Oc4ncc(-c5ccn[nH]5)cn4)ccc3c2)C1 [Example 47, 3-Methyl-1-{6-[5-(2H-pyrazol-3-yl)-pyrimidin-2-yloxy]-naphthalen-2-ylmethyl}-azetidin-3-ol] |
| 0.0029 | 0.61 | O=C(CO)N1CCN(Cc2ccc3cc(Oc4ncc(-c5ccn[nH]5)cn4)ccc3c2)CC1 [Example 48, 2-Hydroxy-1-(4-{6-[5-(2H-pyrazol-3-yl)-pyrimidin-2-yloxy]-naphthalen-2-ylmethyl}-piperazin-1-yl)-ethanone] |
| 0.0022 | 0.21 | OC1CN(Cc2ccc3cc(Oc4ncc(-c5ccn[nH]5)cn4)ccc3c2)C1 [Example 49, 1-{6-[5-(2H-Pyrazol-3-yl)-pyrimidin-2-yloxy]-naphthalen-2-ylmethyl}-azetidin-3-ol] |

| SMILES | IC50 (human LTA4 hydrolase) [µM] | IC50 [1] [µM] |
| --- | --- | --- |
| N#CCC(=O)N1CC2CCC(C1)N2Cc1ccc2cc(Oc3ccc(-c4ccn[nH]4)cn3)ccc2n1 [Example 50, 3-Oxo-3-(8-{6-[5-(2H-pyrazol-3-yl)-pyridin-2-yloxy]-quinolin-2-ylmethyl}-3,8-diaza-bicyclo[3.2.1]oct-3-yl)-propionitrile] | 0.00069 | 0.17 |
| CC(C)(C#N)C(=O)N1CC2CCC(C1)N2Cc1ccc2cc(Oc3ccc(-c4ccn[nH]4)cn3)ccc2n1 [Example 51, 2,2-Dimethyl-3-oxo-3-(8-{6-[5-(2H-pyrazol-3-yl)-pyridin-2-yloxy]-quinolin-2-ylmethyl}-3,8-diaza-bicyclo[3.2.1]oct-3-yl)-propionitrile] | 0.00073 | 0.21 |
| CO[C@H](C)C(=O)N1CC2CCC(C1)N2Cc1ccc2cc(Oc3ccc(-c4ccn[nH]4)cn3)ccc2n1 [Example 52, (R)-2-Methoxy-1-(8-{6-[5-(2H-pyrazol-3-yl)-pyridin-2-yloxy]-quinolin-2-ylmethyl}-3,8-diaza-bicyclo[3.2.1]oct-3-yl)-propan-1-one] | 0.00077 | 0.15 |
| CO[C@@H](C)C(=O)N1CC2CCC(C1)N2Cc1ccc2cc(Oc3ccc(-c4ccn[nH]4)cn3)ccc2n1 [Example 53, (S)-2-Methoxy-1-(8-{6-[5-(2H-pyrazol-3-yl)-pyridin-2-yloxy]-quinolin-2-ylmethyl}-3,8-diaza-bicyclo[3.2.1]oct-3-yl)-propan-1-one] | 0.00066 | 0.11 |
| O=C([C@H]1CCCO1)N1CC2CCC(C1)N2Cc1ccc2cc(Oc3ccc(-c4ccn[nH]4)cn3)ccc2n1 [Example 54, (8-{6-[5-(2H-Pyrazol-3-yl)-pyridin-2-yloxy]-quinolin-2-ylmethyl}-3,8-diaza-bicyclo[3.2.1]oct-3-yl)-(R)-tetrahydro-furan-2-yl-methanone] | 0.0013 | 0.19 |
| O=C([C@@H]1CCCO1)N1CC2CCC(C1)N2Cc1ccc2cc(Oc3ccc(-c4ccn[nH]4)cn3)ccc2n1 [Example 55, (8-{6-[5-(2H-Pyrazol-3-yl)-pyridin-2-yloxy]-quinolin-2-ylmethyl}-3,8-diaza-bicyclo[3.2.1]oct-3-yl)-(S)-tetrahydro-furan-2-yl-methanone] | 0.0017 | 0.28 |
| O=C(N1CC2CCC(C1)N2Cc1ccc2cc(Oc3ccc(-c4ccn[nH]4)cn3)ccc2n1)C1(O)CC1 [Example 56, (1-Hydroxy-cyclopropyl)-(8-{6-[5-(2H-pyrazol-3-yl)-pyridin-2-yloxy]-quinolin-2-ylmethyl}-3,8-diaza-bicyclo[3.2.1]oct-3-yl)-methanone] | 0.00053 | 0.15 |
| C[C@H](O)C(=O)N1CC2CCC(C1)N2Cc1ccc2cc(Oc3ccc(-c4ccn[nH]4)cn3)ccc2n1 [Example 57, (S)-2-Hydroxy-1-(8-{6-[5-(2H-pyrazol-3-yl)-pyridin-2-yloxy]-quinolin-2-ylmethyl}-3,8-diaza-bicyclo[3.2.1]oct-3-yl)-propan-1-one] | 0.00043 | 0.098 |
